Holding throughout (assay type): cell-based, rat
Data set [1] relates to PGC-1 α. Put plainly: ELISA of PGC-1 α protein expression.
For data set [2], the system named is L6 muscle cells. The experiment in a line: Cell morphology (confluence) of L6 muscle cells by microscope. The settings on record: 48 hours. The procedure: (§1) Rat myoblast cell line L6 used herein was obtained from Korean Cell Line Bank. Cells were cultured until the number of cells reached 1×10^6 in T-75 flask (BD Biosciences) using DMEM (Dulbecco's Modified Eagle medium) supplemented with 4.5 g/L of D-glucose, L-glutamine, 0.11 g/L of sodium pyruvate and 10% FBS (Fetal bovine serum, Gibco; Invitrogen Corp., CA, USA). To differentiate cells, the medium with 2% HS (Horse serum, Gibco; Invitrogen Corp., CA, USA) was inoculated and the cells were incubated at 37° C. in 5% CO2 incubator (Forma scientific, Germany). The medium was replaced every 2 days and subculture was conducted every 3 to 4 days. In addition, the myoblast cells, used in this experiment, were differentiated up to 0.3×10^6 in 6 well plate (BD biosciences) before they were used. After the washing step with PBS (Gibco; Invitrogen Corp., CA, USA), the cells were used for ELISA, MTT and PCR analysis.
To compare the morphology of L6 muscle cells on the concentration of metformin, 0.5×10^5 muscle cells were seeded onto each well in 6 well plate (Falcon) and incubated at 37° C. in 5% CO2 incubator for 24 hours. 20 μM of rosuvastatin was treated and 0, 1, 10, 20, and 100 μM of metformin was treated, respectively. After 48 hours, all of them were observed using a microscope (IS-70, Olympus),

Data set [3] relates to Atrogin-1. The experiment in a line: ELISA of Atrogin-1 protein expression. The settings on record: as the concentration of rosuvastatin was increased. As for the experimental part: as §1, with “analysis. […] Non-bound material was removed after washing four times with phosphate-buffered saline containing 0.2% tween 20 (PBS-T). The plate was washed 4 times with PBS buffer containing 0.2% Tween 20; and 200 μl of blocking solution (GenDEPOT) containing 1% BSA (Bovine Serum Albumin) with PBS was seeded onto each well and incubated for 2 hours at 4° C. […] Lastly, the absorbance was measured at 450 nm using an ELISA reader.” for “analysis.”
A general note: In an ELISA, binding on a coated surface is turned into a signal by an enzyme label.

The test system of data set [4] is L6 muscle cells. Put plainly: MTT assay, viability of L6 muscle cells. The note with it: 20 μM of rosuvastatin only, 48 hours.
Experimental: MTT assay was carried out to determine the viability of L6 muscle cells. 1×10^4 cells were seeded onto each well in 96 well plate and incubated at 37° C. in 5% CO2 incubator for 24 hours.
20 μM of rosuvastatin was treated and 0, 1, 10, 20 and 100 μM of metformin was treated, respectively. […] Lastly, the optical density of formazan was measured at 570 nm using an ELISA Reader.
For data set [5], the system named is Atrogin-1 mRNA. Put plainly: RT-PCR of Atrogin-1 mRNA in L6 muscle cells. The settings on record: 20 μM of rosuvastatin. As for the experimental part:
as §1
To measure the mRNA level of Atrogen-1 in muscle cells depending on concentration of metformin, the cells were homogenized in 500 μl of Trizol (Invitrogen) and 3 μg of total RNA was collected using a cell scraper. […]

This is an account of results in patent US9005636B2, “Pharmaceutical composition comprising metformin and rosuvastatin” (BCWorld Pharm Co., Ltd., priority 2009, dated 2015).

SMILES strings stand for the structures.

On to `CN(C)C(=N)N=C(N)N` [metformin], for which, in data set [1] (0.1 μM of metformin), the “protein level of PGC-1 α compared to negative control” value was “did not show a significant difference”. The “protein level of PGC-1 α” value in data set [1] (more than 1 μM of metformin) is listed as “increase”. Moreover, the “confluence of L6 cells” value in data set [2] (20 μM of rosuvastatin plus 1, 10, 20, 100 μM of metformin) was “increased as the concentration of metformin increased”.
For the molecule `CC(C)c1nc(N(C)S(C)(=O)=O)nc(-c2ccc(F)cc2)c1/C=C/[C@@H](O)C[C@@H](O)CC(=O)O` [rosuvastatin], the “protein expression of Atrogin-1” value in data set [3] is listed as “increased”. In addition, in data set [2] (20 μM of rosuvastatin), the “confluence of L6 cells compared to the group without treatment” value is “decreased significantly”. Also, the “viability of the cells (MTT)” value in data set [4] is on record as “significant decrease”. Moreover, the “mRNA expression of Atrogin-1 compared to negative control” value in data set [5] is given as “increased”.
